{"source": "patent US4366143A", "about": "“Assay for the free portion of substances in biological fluids” (Amersham International Public Limited Company, priority 1979, dated 1982)", "key": {"[1]": {"test_system": "serum albumin", "details": "U.S. Pat. No. 4,069,305; cited from earlier work"}, "[2]": {"molecular_target": "T1, transcortin (Homo sapiens, UniProt P08185)", "T1 construct": "charcoal extracted human serum; from tissue; host or cells: human serum, charcoal extracted (unpurified)", "T1 sequence (P08185 23-405)": "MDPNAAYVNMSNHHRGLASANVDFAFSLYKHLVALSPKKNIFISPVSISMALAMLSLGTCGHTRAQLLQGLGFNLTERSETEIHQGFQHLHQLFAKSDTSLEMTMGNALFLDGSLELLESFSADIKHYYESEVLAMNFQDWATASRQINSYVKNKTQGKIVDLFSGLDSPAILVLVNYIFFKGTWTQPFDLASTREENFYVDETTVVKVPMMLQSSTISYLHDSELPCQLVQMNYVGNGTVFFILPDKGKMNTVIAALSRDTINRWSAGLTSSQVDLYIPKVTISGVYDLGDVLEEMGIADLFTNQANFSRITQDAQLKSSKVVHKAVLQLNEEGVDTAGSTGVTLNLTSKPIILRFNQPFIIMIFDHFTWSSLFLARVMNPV", "test": "Binding of cortisol tracers to serum proteins / transcortin with and without ANS (Example 4)", "details": "for % Tracer Bound to Serum Proteins (Corrected for Non-Specific Binding): charcoal extracted human serum", "description": "The protocol was as follows:\nB. 200 μl buffer (containing either 0 or 600 μg of 8-anilinonaphthalene sulphonic acid (ANS) as a cortisol binding site blocking agent).\nA mixture of A and B was incubated at 37° C. for one hour. […] The reaction tubes were mixed for one hour at room temperature. A 0.5 ml aliquot of the supernatant was then removed for counting."}, "[3]": {"test_system": "rabbit anti-cortisol serum", "description": "This experiment is designed to test the binding of cortisol-3-carboxymethyloxime-histamine-I^125 tracer with an antiserum raised to a cortisol-3-carboxymethyloxime-thyroglobulin conjugate. The protocol was as follows:\n50 μl of serum was mixed with 200 μl of cortisol-3-carboxymethyloxime-histamine-I^125 tracer solution. The specific activity of the tracer was 3.9 curies per milligram. The tracer concentration was 125 picomolar. The buffer contained 28 g/l Na2 HPO4.12H2 O, 4.6 g/l citric acid monohydrate, 9 g/l NaCl, 3 g/l E.D.T.A. disodium salt, 0.5 g/l NaN3, 1 g/l gelatin and 1 g/l of 8-anilinonaphthalene sulphonic acid (the latter to inhibit binding of cortisol to transcortin and albumin).\nTo the mixture of tracer and serum, 200 μl of a suspension of polystyrene latex particles (0.9 micron diameter) coated with the rabbit anti-cortisol serum was added. The buffer was 28 g/l Na2 HPO4.12H2 O, 4.6 g/l citric acid monohydrate, 0.5 g/l NaN3 and 2 g/l bovine serum albumin. The effective antiserum dilution in the assay tube was 1/20000.\nThe resulting mixture was vortexed and incubated at 37° C. for 1 hour. The antibody coated particles were centrifuged down at 1500 g for 15 minutes and the liquid phase decanted off."}, "[4]": {"test_system": "antiserum raised to a 21-hemisuccinate-cortisol conjugate to bovine serum albumin", "details": "heterologous tracer-immunogen pair"}}, "note": "Read-outs that look alike come from different tables or passages of the source.", "data": [{"compound": "C[C@]12CCC(=NOCC(=O)NCCc3c[nH]cn3)C=C1CC[C@@H]1[C@@H]2[C@@H](O)C[C@@]2(C)[C@H]1CC[C@]2(O)C(=O)CO", "values": [{"measurement": "binding to serum albumin relative to cortisol (in words)", "setting": "[1]", "value": "binds much less strongly to serum albumin than cortisol itself"}]}, {"compound": "cortisol-3-carboxymethyloxime-histamine I^125", "values": [{"measurement": "binding to transcortin (in words)", "setting": "[2]", "value": "binds very weakly to transcortin"}, {"measurement": "% Tracer Bound to Serum Proteins (Corrected for Non-Specific Binding)", "setting": "[2]; ANS 0 μg/tube", "value": 7, "unit": "%"}, {"measurement": "% Tracer Bound to Serum Proteins (Corrected for Non-Specific Binding)", "setting": "[2]; ANS 600 μg/tube", "value": 5, "unit": "%"}, {"measurement": "displacement from transcortin by ANS blocking agent (in words)", "setting": "[2]; high concentrations of ANS", "value": "not significantly displaced by the ANS blocking agent"}, {"measurement": "% Radioactivity in the antibody Coated Particles", "setting": "[3]; Total Plasma Cortisol 0 μg/dl", "value": 65.4, "unit": "%"}, {"measurement": "% Radioactivity in the antibody Coated Particles", "setting": "[3]; Total Plasma Cortisol 1 μg/dl", "value": 56.6, "unit": "%"}, {"measurement": "% Radioactivity in the antibody Coated Particles", "setting": "[3]; Total Plasma Cortisol 4 μg/dl", "value": 43.0, "unit": "%"}, {"measurement": "% Radioactivity in the antibody Coated Particles", "setting": "[3]; Total Plasma Cortisol 10 μg/dl", "value": 30.6, "unit": "%"}, {"measurement": "% Radioactivity in the antibody Coated Particles", "setting": "[3]; Total Plasma Cortisol 28 μg/dl", "value": 19.2, "unit": "%"}, {"measurement": "% Radioactivity in the antibody Coated Particles", "setting": "[3]; Total Plasma Cortisol 60 μg/dl", "value": 12.2, "unit": "%"}, {"measurement": "affinity of antiserum for tracer (in words)", "setting": "[4]", "value": "sufficient affinity"}]}]}
